In BindingDB's records for doi:10.1021/jm061344o (Incyte, 2007) one finds IC50 data, which are given here for 3 compounds.

A short description of this assay: Inhibition of Her2 sheddase activity in BT474 cell line.

As usually defined, the IC50 is the concentration needed to halve the response being measured. A higher IC50 goes with a need for much substance.

As for `O=C(NO)[C@H]1CC2(CC2)CN[C@@H]1C(=O)N1CCN2c3ccccc3CC2C1` (stereo partly drawn) [(6S,7S)-N-hydroxy-6-(3,4,10,10a-tetrahydropyrazino[1,2-a]indol-2(1H)-ylcarbonyl)-5-azaspiro[2.5]octane-7-carboxamide], the IC50 came out at 280 nM.

For `O=C(NO)[C@H]1CC2(CC2)CN[C@@H]1C(=O)N1CCC(c2ccccc2)CC1` [(6S,7S)-N-hydroxy-6-[(4-phenylpiperidin-1-yl)carbonyl]-5-azaspiro[2.5]octane-7-carboxamide], the IC50 came out at 140 nM.

`O=C(NO)[C@H]1CCCN[C@@H]1C(=O)N1CC[C@H](c2ccccc2)C1` [(2S,3S)-N-hydroxy-2-((R)-3-phenylpyrrolidine-1-carbonyl)piperidine-3-carboxamide] returned an IC50 of 560 nM.
